Data as given in patent US10156564B1, “Methods of detecting biomarkers of endoplasmic reticulum (ER) stress-associated kidney diseases” (Washington University, priority 2016, dated 2018).
Entries after “also recorded” stand apart in the source; their conditions may differ.

Legend:
mouse primary podocytes = experiment: CRELD2 expression in mouse primary podocytes treated with ER stress inducers (WB, immunofluorescence); assay type: cell-based; conditions: for CRELD2 immunofluorescence in podocytes: TM 2 μg/ml or TG 1 μM for 24 h, overlapped with BiP; for CRELD2 expression in cell lysates (WB): TM 2 μg/ml or TG 1 μM for 24 h vs DMSO vehicle
Description: FIG. 9A is an image of a Western blot showing mouse primary podocytes were treated with DMSO (control), tunicamycin (TM) (2 μg/ml) or thapsigargin (TG) (1 μM) for 24 h. Cell lysates were analyzed by WB with the indicated antibodies. TM and TG are ER stress inducers.
FIG. 9B is a series of images showing control and TM- or TG-treated mouse podocytes, as described in FIG. 9A stained for CRELD2 (red) and BiP (green). Nuclei were counterstained with Hoechst 33342 (blue). Scale bar, 40 μm.
CRELD2 is a urinary biomarker for detecting podocyte ER stress in the early stages of podocyte ER stress-induced nephrotic syndrome (NS) in mice. Initial experiments (see e.g., Example 2) determined ER stress increases CRELD2 expression and secretion in mouse primary podocytes. Mouse podocytes were treated for 24 h with tunicamycin (TM), which activates ER stress by blocking N-linked glycosylation in the ER (26), or TG, which depletes ER calcium through inhibition of ER calcium ATPase (27). […] The effects of ER stress on CRELD2 secretion were also examined.
Isolated glomeruli from Lamb2^+/−, Lamb2^−/−; Tg-C321R and Lamb2^−/−; Tg-WT mice at P27 were suspended in DMEM/Ham's F-12 (2:1) that contained 0.45 μm-filtered 3T3-L1 supernatant, 5% heat inactivated FBS, ITS (Insulin-Transferrin-Sodium Selenite) liquid media supplement, and 100 U/ml penicillin-streptomycin; plated onto collagen type I-coated petri dishes; and incubated at 37° C. in room air with 5% CO2. After 3 days, cell colonies began to sprout around the glomeruli. […] Only passages 1-2 podocytes from the indicated genotypes were used in the in vitro studies.
For immunocytochemistry, mouse primary podocytes were seeded on cover slips coated with 5 μg/ml rat collagen I that was dissolved in 0.02M acetic acid in 24 well plates for 48 hours. After 24 hours treatment with DMSO, TM or TG, the cells were fixed with 4% PFA for 20 minutes and permeabilized with 1% Triton X-100 for 5 minutes at room temperature, blocked with 1% BSA for 30 minutes at room temperature, followed by incubation with goat anti-mouse CRELD2 (R&D) and rabbit anti-mouse BiP antibodies for an additional 1 hour at room temperature. The cover slips were washed with PBS and incubated with the corresponding Alexa 594- or Alexa 488-conjugated secondary antibodies and Hoechst 33342 to stain nuclei. The cover slips were then mounted with anti-quench solution and visualized using a fluorescence microscope (Nikon).
Isolated mouse glomeruli and cultured mouse primary podocytes were lysed by RIPA buffer (Sigma) containing protease inhibitor cocktail (Roche, Indianapolis, Ind.). TM untreated- and treated-kidneys, as well as sham-operated and I/R-injured kidneys, were extracted using the same lysis buffer with the protease inhibitors and homogenized by sonication. The protein concentrations of cell, glomerular and kidney lysates were determined by Bio-Rad protein assay (Hercules, Calif.) using BSA as a standard. Denatured proteins were separated on SDS polyacrylamide gel electrophoresis (SDS-PAGE) and then transferred to PVDF membranes. Blots were blocked with 5% non-fat milk for 1 hour and then incubated overnight with primary antibodies. The membranes were washed with Tris-buffered saline/TWEEN® (polysorbate) buffer and incubated with the appropriate HRP-conjugated secondary antibodies. […] Relative intensities of protein bands were quantified using ImageJ (NIH) analysis software.

C57BL/6J mice [1] = conditions: cited from earlier work
C57BL/6J mice [2] = experiment: TM-induced AKI mouse model (kidney and urine CRELD2/BiP, histology); assay type: in vivo; conditions: for BiP in ER stressed-tubular cells (immunofluorescence): 1 day and 5 days post TM injection (FIG. 19); for urinary CRELD2 excretion (WB): urine within 24 hours after TM 1 mg/kg IP vs vehicle; for BiP in urine (immunodetection): within 24 hr from TM injection, no obvious histological changes of kidney injury (FIG. 20)
Description: FIG. 10A is a bar graph showing quantitative RT-PCR analysis of relative transcript levels of CRELD2 in kidneys at the indicated time points following TM injection (1 mg/kg, IP) as compared to DMSO vehicle-injected controls. Absolute levels were normalized first to those of GAPDH and then to the levels in the control kidneys (mean±SD). **P<0.01 and ***P<0.001 by ANOVA (n=3 mice per group).
FIG. 10B is a series of images showing dual IF staining for CRELD2 (green) and LTL (red) on paraformaldehyde-fixed, sucrose-cryoprotected kidney sections from mice treated with vehicle or TM (1 mg/kg) at the indicated time points. Nuclei were counterstained with Hoechst 33342 (blue). G: glomerulus. Scale bars, 40 μm.
FIG. 10C is a Western blot showing whole-kidney lysates from mice treated with or without TM (1 mg/kg) at different time points were analyzed by WB for levels of CRELD2 and β-actin.
FIG. 10E is an image of a Western blot showing the detection of urinary CRELD2 within 1 day of TM injection. Urines were collected for 24 hours after the mice were injected with vehicle or 1 mg/kg TM (IP). Crude urine samples from mice treated with vehicle (n=8) or TM (n=8) were analyzed by WB for CRELD2 excretion. The urinary CRELD2 excretion was normalized to 2 μg of urine Cr excretion.
Intraperitoneal (IP) injection of TM in mice is a well characterized AKI model caused by renal proximal tubular ER stress (29). […] In comparison, glomeruli and other organs are spared (21, 29).
TM was dissolved in DMSO at 2 mg/ml, and injected intraperitoneally at 1 mg/kg into 6-10 weeks old C57BL/6J mice. Urine was collected from metabolic cages in which the mice were immediately placed after the injection. 1 day or 5 days after the injection, sera were obtained, and kidneys were harvested. One kidney was snap frozen in dry ice and stored at −70 C until further processing for protein and RNA. The other kidney was fixed in 4% paraformaldehyde (PFA) (pH 7.4) at 4 C and then transferred to 15% and 30% sucrose/PBS for OCT-embedded cryosections.
For dual staining of CRELD2 with biotinylated LTL in mouse kidneys, […]. After dewaxing, PFA-fixed, sucrose-cryoprotected kidney sections from control or TM-treated mice were subjected to antigen retrieval by immersion in 10 mM citric acid buffer (pH 6.0) for 5 minutes at 95 C. […] Nonspecific avidin binding was blocked by an avidin/biotin blocking kit (Vector laboratories) before incubating kidney sections with 1% BSA for 30 minutes at room temperature. The slides were stained with a goat anti-mouse CRELD2 antibody (R&D) together with biotinylated LTL overnight at 4° C., followed by an Alexa 488-conjugated anti-goat secondary antibody and Alexa 594-conjugated streptavidin as well as Hoechst 33342. For CRELD2 staining in sham-operated and post-ischemic kidneys, the fluorescent signal was further amplified using a Fluorescein tyramide amplification kit (Perkin-Elmer, Waltham, Mass.) according to the manufacturer's instructions. Slides were analyzed under a fluorescence microscope (Nikon).
Isolated mouse glomeruli and cultured mouse primary podocytes were lysed by RIPA buffer (Sigma) containing protease inhibitor cocktail (Roche, Indianapolis, Ind.). TM untreated- and treated-kidneys, as well as sham-operated and I/R-injured kidneys, were extracted using the same lysis buffer with the protease inhibitors and homogenized by sonication. The protein concentrations of cell, glomerular and kidney lysates were determined by Bio-Rad protein assay (Hercules, Calif.) using BSA as a standard. Denatured proteins were separated on SDS polyacrylamide gel electrophoresis (SDS-PAGE) and then transferred to PVDF membranes. Blots were blocked with 5% non-fat milk for 1 hour and then incubated overnight with primary antibodies. The membranes were washed with Tris-buffered saline/TWEEN® (polysorbate) buffer and incubated with the appropriate HRP-conjugated secondary antibodies. […]

Row | Compound | CRELD2 immunofluorescence in podocytes (mouse primary podocytes) | CRELD2 expression in cell lysates (WB) (mouse primary podocytes) | form of CRELD2 expressed (WB) (mouse primary podocytes; TM 2 μg/ml, 24 h) | ER stress response genes including BiP, CHOP, MANF and EDEM (C57BL/6J mice [1]; day 1 after TM injection) | renal function and histology (C57BL/6J mice [1]; day 1 after TM injection) | renal histology after IP injection of TM (C57BL/6J mice [1]; peaks between 4 and 5 days after injection, glomeruli and other organs spared) | CRELD2 in ER-stressed proximal tubular cells (marked by LTL) (C57BL/6J mice [2]; 1 day and 5 days post TM injection (FIG. 4)) | BiP in ER stressed-tubular cells (immunofluorescence) (C57BL/6J mice [2]) | BiP in ER stressed-tubular cells (immunofluorescence) (C57BL/6J mice [2]; listed as tunicamycin) | CRELD2 immunostaining in proximal tubules (co-IF with LTL) (C57BL/6J mice [2]; 5 days post-injection, TM 1 mg/kg IP) | CRELD2 induction in glomeruli (IF) (C57BL/6J mice [2]; TM-injected kidneys, 1 mg/kg IP) | BiP in kidney lysates (immunodetection) (C57BL/6J mice [2]; TM-injected mice (FIG. 18)) | CRELD2 in kidney lysates (immunodetection) (C57BL/6J mice [2]; TM-injected mice, time not stated (FIG. 3)) | CRELD2 transcript levels in whole-kidney lysates (RT-PCR) (C57BL/6J mice [2]; day 1 after TM 1 mg/kg IP vs DMSO vehicle or day 5) | CRELD2 immunostaining in proximal tubules (co-IF with LTL) (C57BL/6J mice [2]; day 1 following TM 1 mg/kg IP vs controls) | CRELD2 protein expression in kidneys (WB) (C57BL/6J mice [2]; day 1 vs controls or day 5 post-injection, TM 1 mg/kg IP) | urinary CRELD2 excretion (WB) (C57BL/6J mice [2]) | urinary CRELD2 excretion (WB) (C57BL/6J mice [2]; listed as tunicamycin) | BiP in urine (immunodetection) (C57BL/6J mice [2]) | BiP in urine (immunodetection) (C57BL/6J mice [2]; listed as tunicamycin)
1 | C/C=C(/C)C(=O)O[C@H]1C(C)=C2[C@H]([C@@H]1OC(=O)CCCCCCC)[C@@](C)(OC(C)=O)C[C@H](OC(=O)CCC)[C@@]1(O)[C@H]2OC(=O)[C@@]1(C)O [TG, thapsigargin] | upregulated | induced expression of CRELD2 |  |  |  |  |  |  |  |  |  |  |  |  |  |  |  |  |  | 
2 | tunicamycin [TM] | upregulated | induced expression of CRELD2 | underglycosylated form of CRELD2 | upregulated | normal renal function and the absence of conspicuous histologic changes | extensive tubular dilation, epithelial flattening, tubular basement membrane denudation and loss of brush borders in proximal tubules | upregulated | upregulated | upregulation | subsided | did not exhibit CRELD2 induction | induced | induced | significantly increased | substantially upregulated | higher | can be detected; also recorded: dramatically increased | immunodetection of CRELD2 in the urine | detected | immunodetection of BiP in urine
